# Source: US20250163057A1, “DCN-1 MODULATING COMPOUNDS AND METHODS OF USE THEREOF” (Cellarity, Inc., priority 2023, published 2025)
# pIC50: −log10 of the molar value. Like-named read-outs stand apart in the source and are kept apart here.
# What was measured:
# [1] = system: Cullin-3 (CUL3) neddylation; assay: AlphaLISA assay for Cullin-3 (CUL3) neddylation in TF 1 cells; format: cell-based; details: Homo sapiens, 3 hours treatment
# Outline: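 Neddylated CUL3 was quantified by AlphaLISA in lysates of TF 1 cells exposed for 3 h to test compound in IMDM without supplements. Percent inhibition set between vehicle and 1 μM DI-1548 positive control; IC50 derived by Hill-equation fitting of dose-response curves.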
# [2] = biological target: DCN1 (DCUND1) protein PONY domain (Homo sapiens (Human), UniProt Q96GG9); assay: TR-FRET assay, DCN1 binding with FAM-labeled probe
# Sequence of DCN1 (DCUND1) protein PONY domain (Q96GG9 60-248): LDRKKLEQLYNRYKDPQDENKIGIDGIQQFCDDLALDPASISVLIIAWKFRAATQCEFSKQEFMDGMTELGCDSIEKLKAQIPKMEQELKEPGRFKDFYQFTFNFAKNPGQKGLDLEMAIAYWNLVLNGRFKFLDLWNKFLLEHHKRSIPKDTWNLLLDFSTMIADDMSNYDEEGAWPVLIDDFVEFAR
# Outline: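 Binding was read as the TR-FRET ratio between a FAM-tagged inhibitor probe and Tb-labeled biotinylated E. coli-expressed DCN1 PONY domain, measured 1, 5 and 24 h after compound addition. The two setups used 5 nM protein/20 nM FAM-probe or 0.31 nM protein/900 nM total probe (100 nM labeled), in TritonX buffer with 200 mM NaCl.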
# DCN1 protein = DCN1 protein (Homo sapiens (Human), UniProt Q96GG9); assay: Intact Protein MS Analysis with the RapidFire-TOF System (covalent adduct formation); format: binding; details: MS Emax; 400 nM DCN1, 3 hours at room temperature
# Sequence of DCN1 protein (Q96GG9 whole entry): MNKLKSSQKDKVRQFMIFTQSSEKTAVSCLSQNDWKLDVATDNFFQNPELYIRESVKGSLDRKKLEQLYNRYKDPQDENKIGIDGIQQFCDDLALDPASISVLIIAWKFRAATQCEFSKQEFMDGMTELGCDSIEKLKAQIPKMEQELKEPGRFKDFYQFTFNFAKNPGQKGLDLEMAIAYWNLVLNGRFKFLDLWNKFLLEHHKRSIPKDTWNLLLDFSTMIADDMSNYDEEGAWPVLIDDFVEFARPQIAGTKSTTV
# Outline: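 Tag-cleaved human DCN1 (400 nM) expressed in E. coli, in 25 mM Tris-HCl, 200 mM NaCl, 1 mM DTT, was incubated with 11 compound concentrations for 3 h at room temperature and quenched with 0.2% formic acid. Intact-protein Q-TOF MS with deconvolution detected the compound adduct mass.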
# [3] = 24 hr after treatment with compound, read-out: TR FRET IC50 24 hr
# [4] = read-out: TR FRET IC50 1 hr, 1 hr after treatment with compound
SMILES,pIC50 [1],"pIC50 [2, 3]","pIC50 [2, 4]",% Adduct Formation (DCN1 protein)
CCN1C(=O)[C@@H](NC(=O)c2ccc3c(c2)CCC3)[C@@H](C2CC2)c2c(C(=O)N3[C@H](C#N)C[C@H]4C[C@H]43)nn(C3CCOCC3)c21 [Compound I-391],≥ 7.00,≥ 6.70,≥ 6.70,+++ (MS Emax % adduct formation greater than 80.0 and less than or equal to 100.0)
CCN1C(=O)[C@@H](NC(=O)c2csc(C(F)(F)F)n2)[C@@H](C2CC2)c2c(C(=O)N3[C@H](C#N)C[C@H]4C[C@H]43)nn(C3CCOCC3)c21 [Compound I-392],≥ 7.00,≥ 6.70,≥ 6.70,+++ (MS Emax % adduct formation greater than 80.0 and less than or equal to 100.0)
CCN1C(=O)[C@@H](NC(=O)c2cccc3c2OCCC3)[C@@H](C2CC2)c2c(C(=O)N3[C@H](C#N)C[C@H]4C[C@H]43)nn(C3CCOCC3)c21 [Compound I-394],≥ 7.00,≥ 6.70,≥ 6.70,+++ (MS Emax % adduct formation greater than 80.0 and less than or equal to 100.0)
CCN1C(=O)[C@@H](NC(=O)c2cccc(OC)c2)[C@@H](C2CC2)c2c(C(=O)N3[C@H](C#N)C[C@H]4C[C@H]43)nn(C3CCOCC3)c21 [Compound I-395],≥ 7.00,≥ 6.70,≥ 6.70,+++ (MS Emax % adduct formation greater than 80.0 and less than or equal to 100.0)
CCN1C(=O)[C@@H](NC(=O)c2cccc(OC(F)(F)F)c2)[C@@H](C2CC2)c2c(C(=O)N3[C@H](C#N)C[C@H]4C[C@H]43)nn(C3CCOCC3)c21 [Compound I-396],≥ 7.00,≥ 6.70,≥ 6.70,+++ (MS Emax % adduct formation greater than 80.0 and less than or equal to 100.0)
CCN1C(=O)[C@@H](NC(=O)c2cccc3c2OCO3)[C@@H](C2CC2)c2c(C(=O)N3[C@H](C#N)C[C@H]4C[C@H]43)nn(C3CCOCC3)c21 [Compound I-397],≥ 7.00,≥ 6.70,≥ 6.70,+++ (MS Emax % adduct formation greater than 80.0 and less than or equal to 100.0)
